Data: patent publication US20250051300A1, “GRAM-NEGATIVE SPECIFIC ANTIBIOTICS SPARING EFFECT ON GUT MICROBIOME” (THE BOARD OF TRUSTEES OF THE UNIVERSITY OF ILLINOIS, priority 2021, published 2025)
In brackets after ≈: the same amount, converted by molar mass. Where two headings read alike, the source gives them in different places.

Legend:
[1] = test system: Klebsiella pneumoniae; experiment: MIC, micro-dilution broth method (CLSI); format: cell-based
[2] = test system: E. coli AR0349; experiment: Acute pneumonia bacterial burden model; format: in vivo, CD-1 mice; details: 100 mg/kg IP twice a day for 3 days, lungs, 72 h post-infection
[3] = Aqueous solubility limit; format: physicochemical; details: cation-adjusted Mueller Hinton broth (MIC assay medium); limit to which compounds were tested in MIC assays

Compound: Fc1ccc(COc2cccc(-c3n[nH]cc3-c3ccncc3)c2)cc1 [Compound 2, 4-(3-(3-((4-fluorobenzyl)oxy)phenyl)-1H-pyrazol-4-yl)pyridine]
- MIC ([1]; K. pneumoniae AR-0040): >32 µg/mL
- MIC ([1]; K. pneumoniae ATCC BAA-1705): >32 µg/mL
- MIC ([1]; Klebsiella pneumoniae, ATCC27736, K. pneumoniae ATCC 27736, read-out: MIC): > 32 µg/mL
- MIC ([1]; Klebsiella pneumoniae, ATCCBAA1705, K. pneumoniae ATCC BAA-1705, read-out: MIC): > 32 µg/mL
- MIC ([1]; Klebsiella pneumoniae, ATCCBAA2146, K. pneumoniae ATCC BAA-2146, read-out: MIC): > 32 µg/mL
- MIC ([1]; Klebsiella pneumoniae, ATCCBAA2342, K. pneumoniae ATCC BAA-2342, read-out: MIC): > 32 µg/mL
- MIC ([1]; Klebsiella pneumoniae, ATCCBAA2470, K. pneumoniae ATCC BAA-2470, read-out: MIC): > 32 µg/mL
- MIC ([1]; Klebsiella pneumoniae, ATCCBAA2472, K. pneumoniae ATCC BAA-2472, read-out: MIC): > 32 µg/mL
- MIC ([1]; Klebsiella pneumoniae, ATCCBAA2473, K. pneumoniae ATCC BAA-2473, read-out: MIC): > 32 µg/mL
- MIC ([1]; Klebsiella pneumoniae, K. pneumoniae AR0034, read-out: MIC): > 32 µg/mL
- MIC ([1]; Klebsiella pneumoniae, K. pneumoniae AR0039, read-out: MIC): > 32 µg/mL
- MIC ([1]; Klebsiella pneumoniae, K. pneumoniae AR0041, read-out: MIC): > 32 µg/mL
- MIC ([1]; Klebsiella pneumoniae, K. pneumoniae AR0042, read-out: MIC): > 32 µg/mL
- MIC ([1]; Klebsiella pneumoniae, K. pneumoniae AR0043, read-out: MIC): > 32 µg/mL
- MIC ([1]; Klebsiella pneumoniae, K. pneumoniae AR0044, read-out: MIC): > 32 µg/mL
- MIC ([1]; Klebsiella pneumoniae, K. pneumoniae AR0046, read-out: MIC): > 32 µg/mL
- MIC ([1]; Klebsiella pneumoniae, K. pneumoniae AR0047, read-out: MIC): > 32 µg/mL
- MIC ([1]; Klebsiella pneumoniae, K. pneumoniae AR0049, read-out: MIC): > 32 µg/mL
- MIC ([1]; Klebsiella pneumoniae, K. pneumoniae AR0066, read-out: MIC): > 32 µg/mL
- MIC ([1]; Klebsiella pneumoniae, K. pneumoniae AR0068, read-out: MIC): > 32 µg/mL
- MIC ([1]; Klebsiella pneumoniae, K. pneumoniae AR0075, read-out: MIC): > 32 µg/mL
- MIC ([1]; Klebsiella pneumoniae, K. pneumoniae AR0076, read-out: MIC): > 32 µg/mL
- MIC ([1]; Klebsiella pneumoniae, K. pneumoniae AR0079, read-out: MIC): > 32 µg/mL
- MIC ([1]; Klebsiella pneumoniae, K. pneumoniae AR0080, read-out: MIC): > 32 µg/mL
- MIC ([1]; Klebsiella pneumoniae, K. pneumoniae AR0087, read-out: MIC): > 32 µg/mL
- MIC ([1]; Klebsiella pneumoniae, K. pneumoniae AR0098, read-out: MIC): > 32 µg/mL
- MIC ([1]; Klebsiella pneumoniae, K. pneumoniae AR0106, read-out: MIC): > 32 µg/mL
- MIC ([1]; Klebsiella pneumoniae, K. pneumoniae AR0107, read-out: MIC): > 32 µg/mL
- MIC ([1]; Klebsiella pneumoniae, K. pneumoniae AR0109, read-out: MIC): > 32 µg/mL
- MIC ([1]; Klebsiella pneumoniae, K. pneumoniae AR0112, read-out: MIC): > 32 µg/mL
- MIC ([1]; Klebsiella pneumoniae, K. pneumoniae AR0113, read-out: MIC): > 32 µg/mL
- MIC ([1]; Klebsiella pneumoniae, K. pneumoniae AR0115, read-out: MIC): > 32 µg/mL
- MIC ([1]; Klebsiella pneumoniae, K. pneumoniae AR0117, read-out: MIC): > 32 µg/mL
- MIC ([1]; Klebsiella pneumoniae, K. pneumoniae AR0120, read-out: MIC): > 32 µg/mL
- MIC ([1]; Klebsiella pneumoniae, K. pneumoniae AR0125, read-out: MIC): > 32 µg/mL
- MIC ([1]; Klebsiella pneumoniae, K. pneumoniae AR0126, read-out: MIC): > 32 µg/mL
- MIC ([1]; Klebsiella pneumoniae, K. pneumoniae AR0129, read-out: MIC): > 32 µg/mL
- MIC ([1]; Klebsiella pneumoniae, K. pneumoniae AR0135, read-out: MIC): > 32 µg/mL
- MIC ([1]; Klebsiella pneumoniae, K. pneumoniae AR0138, read-out: MIC): > 32 µg/mL
- MIC ([1]; Klebsiella pneumoniae, K. pneumoniae AR0139, read-out: MIC): > 32 µg/mL
- MIC ([1]; Klebsiella pneumoniae, K. pneumoniae AR0140, read-out: MIC): > 32 µg/mL
- MIC ([1]; Klebsiella pneumoniae, K. pneumoniae AR0141, read-out: MIC): > 32 µg/mL
- MIC ([1]; Klebsiella pneumoniae, K. pneumoniae AR0142, read-out: MIC): > 32 µg/mL
- MIC ([1]; Klebsiella pneumoniae, K. pneumoniae AR0143, read-out: MIC): > 32 µg/mL
- MIC ([1]; Klebsiella pneumoniae, K. pneumoniae AR0145, read-out: MIC): > 32 µg/mL
- MIC ([1]; Klebsiella pneumoniae, K. pneumoniae AR0146, read-out: MIC): > 32 µg/mL
- MIC ([1]; Klebsiella pneumoniae, K. pneumoniae AR0148, read-out: MIC): > 32 µg/mL
- MIC ([1]; Klebsiella pneumoniae, K. pneumoniae AR0152, read-out: MIC): > 32 µg/mL
- MIC ([1]; Klebsiella pneumoniae, K. pneumoniae AR0153, read-out: MIC): > 32 µg/mL
- MIC ([1]; Klebsiella pneumoniae, K. pneumoniae AR0158, read-out: MIC): > 32 µg/mL
- MIC ([1]; Klebsiella pneumoniae, K. pneumoniae AR0160, read-out: MIC): > 32 µg/mL
- MIC ([1]; Klebsiella pneumoniae, K. pneumoniae AR0347, read-out: MIC): > 32 µg/mL
- MIC ([1]; Klebsiella pneumoniae, K. pneumoniae AR0542, read-out: MIC): > 32 µg/mL
- MIC ([1]; Klebsiella pneumoniae, K. pneumoniae AR0548, read-out: MIC): > 32 µg/mL
- MIC ([1]; Klebsiella pneumoniae, K. pneumoniae AR0550, read-out: MIC): > 32 µg/mL
- MIC ([1]; Klebsiella pneumoniae, K. pneumoniae AR0552, read-out: MIC): > 32 µg/mL
- MIC ([1]; Klebsiella pneumoniae, K. pneumoniae AR0553, read-out: MIC): > 32 µg/mL
- MIC ([1]; Klebsiella pneumoniae, K. pneumoniae AR0554, read-out: MIC): > 32 µg/mL
- MIC ([1]; Klebsiella pneumoniae, K. pneumoniae AR0555, read-out: MIC): > 32 µg/mL
- MIC ([1]; Klebsiella pneumoniae, K. pneumoniae AR-0040, read-out: MIC): > 32 µg/mL
- reduction in bacterial burden [2]: fared poorly
- solubility [3]: 32 µg/mL (≈ 92.7 µM)
